Measured values from the NIST ThermoML archive (doi:10.1016/j.jct.2005.06.011).

What was measured:
[1] = refractive index (Na D-line) (dimensionless); xn = mol fraction of the nth substance listed; conditions: 101 kPa, Liquid
[2] = xn = mol fraction of the nth substance listed; conditions: 101 kPa, Liquid; for speed of sound: Linear variable-path acoustic interferometer
[3] = 101 kPa, Liquid; for speed of sound: Linear variable-path acoustic interferometer
[4] = refractive index (Na D-line) (dimensionless); conditions: 101.33 kPa, Liquid

CC1CCCCC1 [methylcyclohexane] + CCO
Conditions	mass density, 298.15 K [kg/m3]	mass density, 303.15 K [kg/m3]	mass density, 308.15 K [kg/m3]	refractive index, 298.15 K	refractive index, 303.15 K	refractive index, 308.15 K	speed of sound, 298.15 K [m/s]	viscosity, 298.15 K [mPa·s]	viscosity, 303.15 K [mPa·s]	viscosity, 308.15 K [mPa·s]
[1], x1 = 0.1023	–	–	–	1.371	1.3686	1.3662	–	–	–	–
[1], x1 = 0.2031	–	–	–	1.3796	1.3764	1.3744	–	–	–	–
[1], x1 = 0.304	–	–	–	1.3881	1.3853	1.3825	–	–	–	–
[1], x1 = 0.405	–	–	–	1.3949	1.3921	1.3893	–	–	–	–
[1], x1 = 0.5061	–	–	–	1.4017	1.3989	1.3961	–	–	–	–
[1], x1 = 0.6029	–	–	–	1.4068	1.4038	1.4008	–	–	–	–
[1], x1 = 0.6998	–	–	–	1.412	1.4087	1.4054	–	–	–	–
[1], x1 = 0.8016	–	–	–	1.417	1.4135	1.41	–	–	–	–
[1], x1 = 0.9034	–	–	–	1.4192	1.4169	1.4146	–	–	–	–
[1], x1 = 1	–	–	–	1.4217	1.4192	1.4163	–	–	–	–
[2], x1 = 0.1023	779.57	775.21	770.8	–	–	–	1167	0.9923	0.9068	0.8212
[2], x1 = 0.2031	775.92	771.51	767.07	–	–	–	1172	0.9225	0.8458	0.7691
[2], x1 = 0.304	772.55	768.07	763.6	–	–	–	1178	0.8558	0.788	0.7202
[2], x1 = 0.405	770.25	765.74	761.26	–	–	–	1183	0.808	0.7464	0.6848
[2], x1 = 0.5061	768.4	763.87	759.36	–	–	–	1189	0.7632	0.7079	0.6525
[2], x1 = 0.6029	767.13	762.62	758.09	–	–	–	1195	0.7293	0.677	0.6248
[2], x1 = 0.6998	766.01	761.51	756.97	–	–	–	1200	0.6984	0.6477	0.5971
[2], x1 = 0.8016	765.34	760.87	756.37	–	–	–	1206	0.6857	0.6392	0.5927
[2], x1 = 0.9034	764.79	760.27	755.77	–	–	–	1212	0.6762	0.6323	0.5884
[2], x1 = 1	764.99	760.66	756.3	–	–	–	1217	0.6757	0.631	0.5902

CCCO [propan-1-ol]
Conditions	mass density, 298.15 K [kg/m3]	mass density, 303.15 K [kg/m3]	mass density, 308.15 K [kg/m3]	refractive index, 298.15 K	refractive index, 303.15 K	refractive index, 308.15 K	speed of sound, 298.15 K [m/s]	viscosity, 298.15 K [mPa·s]	viscosity, 303.15 K [mPa·s]	viscosity, 308.15 K [mPa·s]
[3]	809.65	805.5	801.32	–	–	–	1206	2.077	1.809	1.595
[4]	–	–	–	1.384	1.3819	1.38	–	–	–	–

CCCO [propan-1-ol] + CC1CCCCC1
x2 = 0
Conditions	mass density, 298.15 K [kg/m3]	mass density, 303.15 K [kg/m3]	mass density, 308.15 K [kg/m3]	refractive index, 298.15 K	refractive index, 303.15 K	refractive index, 308.15 K	speed of sound, 298.15 K [m/s]	viscosity, 298.15 K [mPa·s]	viscosity, 303.15 K [mPa·s]	viscosity, 308.15 K [mPa·s]
[1]	–	–	–	1.384	1.3819	1.38	–	–	–	–
[2]	809.65	805.5	801.32	–	–	–	1206	2.077	1.809	1.595

CC(C)O [propan-2-ol]
Conditions	mass density, 298.15 K [kg/m3]	mass density, 303.15 K [kg/m3]	mass density, 308.15 K [kg/m3]	refractive index, 298.15 K	refractive index, 303.15 K	refractive index, 308.15 K	speed of sound, 298.15 K [m/s]	viscosity, 298.15 K [mPa·s]	viscosity, 303.15 K [mPa·s]	viscosity, 308.15 K [mPa·s]
[3]	781.05	776.79	772.43	–	–	–	1144	2.076	1.786	1.532
[4]	–	–	–	1.3765	1.3741	1.3716	–	–	–	–

CC(C)O [propan-2-ol] + CC1CCCCC1
x2 = 0
Conditions	mass density, 298.15 K [kg/m3]	mass density, 303.15 K [kg/m3]	mass density, 308.15 K [kg/m3]	refractive index, 298.15 K	refractive index, 303.15 K	refractive index, 308.15 K	speed of sound, 298.15 K [m/s]	viscosity, 298.15 K [mPa·s]	viscosity, 303.15 K [mPa·s]	viscosity, 308.15 K [mPa·s]
[1]	–	–	–	1.3765	1.3741	1.3716	–	–	–	–
[2]	781.05	776.79	772.43	–	–	–	1144	2.076	1.786	1.532
